# Measurements taken from PMC12140300, “Development of Carbon‐11 Labeled Pyrimidine Derivatives as Novel Positron Emission Tomography (PET) Agents Enabling Brain Sigma‐1 Receptor Imaging” (Advanced Science, 2025).
# Experiments:
# [1] = biological target: T1, σ1R (Mus musculus, UniProt O55242); experiment: PET/CT imaging in 5xFAD transgenic and WT mice; type: in vivo, 5xFAD mice; settings: 6-month-old male mice, PET/CT 30–60 min
# T1 construct: The PET/CT studies in mice followed previously reported procedures; from tissue; host or cells: mouse brain in vivo (C57BL/6 wild type; 5xFAD transgenic)
# T1 sequence (O55242 whole entry): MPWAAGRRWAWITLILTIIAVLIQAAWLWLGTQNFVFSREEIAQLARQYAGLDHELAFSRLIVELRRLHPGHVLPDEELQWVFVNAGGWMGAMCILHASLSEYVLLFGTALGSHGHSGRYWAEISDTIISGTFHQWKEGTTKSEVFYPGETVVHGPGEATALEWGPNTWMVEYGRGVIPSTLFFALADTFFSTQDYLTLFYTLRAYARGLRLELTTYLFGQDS
# From the text: Numerous studies have shown that σ 1R is abnormally expressed in the AD brain, and targeting σ 1R becomes a promising strategy for diagnosis and treatment of AD.^[ [11], [49] ^] To evaluate the diagnostic potential of [^11C]CNY‐01 for AD and its potential application in studying the relationship between the σ 1R and AD pathology, we conducted PET imaging studies on 5xFAD transgenic mice model and the corresponding wild‐type (WT) mice. […] Of particular note, brain regions with relatively high σ 1R expression observed higher reduction of radioactivity uptake, such as the striatum, hippocampus, and cerebellum, indicating a decrease in σ 1R expression in the brain under AD pathological conditions, consistent with previous reports (Figure 5B).^[ [11], [49], [50] ^]
# Figure 5 PET/CT imaging studies of [^11C]CNY‐01 in WT and 5xFAD mouse model. A) Representative PET/CT images (30–60 min) focused on the WT and 5xFAD mice brain. (n = 4). […] Data were presented as mean ± standard error of the mean (SEM). Quantification of results was performed using Student's t‐test (****p < 0.0001, ***p < 0.001, **p < 0.01, […]).
# The PET/CT studies in mice followed previously reported procedures with minor modifications.^[ [53], [54] ^] […] Reconstructed images were exported from the scanner in DICOM format and were analyzed using PMOD (PMOD 4.01).
# [2] = NHP plasma and metabolite analysis; type: in vivo, rhesus macaque; settings: 30-minute mark
# From the text: Understanding the metabolism of [^11C]CNY‐01 is crucial for modeling its distribution kinetics and evaluating safety profiles. Figure 4B illustrates the presence of radiometabolites in arterial plasma following a bolus injection of [^11C]CNY‐01. […] This characteristic makes it well‐suited for kinetic modeling and reducing background signal interference.
# During the PET/MR scanning, macaque arterial blood samples were collected synchronously. Metabolite extraction and analysis were based on published methods.^[ [54], [60] ^] Briefly, the blood samples were centrifuged to isolate plasma. Next, protein precipitation was achieved by mixing the plasma with acetonitrile (v/v = 1). The mixture was then centrifuged again to obtain protein‐free plasma. A 1 mL aliquot of the protein‐free supernatant was diluted in 4 mL of deionized water, and the radiometabolites were analyzed by HPLC. HPLC condition: Mobile Phase A: water + 0.1% formic acid; Mobile Phase B: acetonitrile + 0.1% formic acid; separation method = 95/5 – 50/50 A/B from 3–8 min linear gradient; 50/50–5/95 A/B from 8–10 min linear gradient; 5/95 A/B from 10–11 min isocratic; flow rate 2 mL min^−1.
# [3] = biological target: T1, σ1R; experiment: Mice PET/CT imaging, baseline and self-blocking; type: in vivo, C57BL/6 mice
# Procedure: PET/CT imaging studies of [^11C]CNY‐01 and [^11C]CNY‐02 were performed in male C57BL/6 mice. […] The whole‐brain time‐activity curve (TAC) of each tracer was generated. […] To investigate the binding specificity of [^11C]CNY‐01 and [^11C]CNY‐02, blocking studies were carried out by pre‐administrating mice with corresponding unlabeled ligands. […] This is due to the receptors in peripheral tissues being occupied by CNY‐01, leading to more radiotracer entering the brain and quickly washing out. […] Of note, the TACs show an increase in brain tracer uptake during the blocking studies, which could be attributed to peripheral blocking effects. To address this, we normalized the brain uptake data to the maximum radioactivity observed in the blood (input function). This normalization allowed us to account for peripheral changes in tracer availability.
# Figure 3 Mice PET/CT study with [^11C]CNY‐01 and [^11C]CNY‐02. A) Representative baseline and blocking (pre‐treated with 1.0 mg kg^−1 CNY‐01) PET/CT images of [^11C]CNY‐01 focused on the brain (summed 30‒60 min, n = 4). B) Whole brain time‐activity curves of [^11C]CNY‐01 for baseline and blocking mice. C) The normalized baseline and blocking TACs of [^11C]CNY‐01 (normalized the brain uptake curves with the maximum radioactivity in the blood at each time point). D) Representative baseline and blocking (pre‐treated with 1.0 mg kg^−1 CNY‐02) PET/CT images of [^11C]CNY‐02 focused on the brain (summed 30‒60 min, n = 4). E) Whole brain time‐activity curves of [^11C]CNY‐02 for baseline and blocking mice. F) The normalized baseline and blocking TACs of [^11C]CNY‐02 (normalized the brain uptake curves with the maximum radioactivity in the blood at each time point). Data were presented as mean ± standard error of the mean (SEM). Quantification of results was performed using Student's t‐test (***p < 0.0001).
# The PET/CT studies in mice followed previously reported procedures with minor modifications.^[ [53], [54] ^] Mice (wild‐type: C57BL/6, male, 6‐month‐old; AD transgenic: 5xFAD, male, 6‐month‐old, n = 4 for each group) were anesthetized with inhalational isoflurane (Patterson Vet Supply, Inc., Greeley, CO, USA) at 2.0% in a carrier of 2 L min^−1 medical oxygen, and maintained at 1.0% isoflurane during the imaging scan. Mice were injected with radiotracer (200 µL) via lateral tail vein catheterization at the start of the dynamic PET scan (Gamma Medica, Northridge, CA, USA). For blocking studies, the blocking agent was administered via the tail vein 5 min before radiotracer injection. Dynamic PET acquisition lasted 60 min and was followed by computed tomography (CT) for anatomic co‐registration. […] Reconstructed images were exported from the scanner in DICOM format and were analyzed using PMOD (PMOD 4.01).
smiles,measurement,setting,value
Cc1nc(-c2ccc(O[11CH3])cc2)nc(OCCCN2CCCCC2)c1Cl [[^11C]CNY-01],brain uptake in 5xFAD mice compared to WT mice,[1],significantly lower uptake
same,parent compound present in plasma,[2],over 30%
same,maximum standard uptake value (SUV) in the brain,"[3]; male C57BL/6 mice, baseline PET/CT",1.3
same,"blocking effect, brain uptake normalized to maximum radioactivity in the blood",[3]; pre-treated with 1.0 mg kg^−1 of the corresponding unlabeled ligand,significant blocking effect
